One block for each compound: values may come before it.
Experiments:
[1] = system: BaF3; experiment: Antiproliferative activity against mouse BaF3 cells harbouring EML4-ALK-C1156Y mutant assessed as inhibition of cell growth incubated for 72 hrs by CellTiter-Glo Luminescent Cell Viability Assay; format: functional, cell-based; conditions: BaF3, 72 h
[2] = system: BaF3; experiment: Antiproliferative activity against mouse BaF3 cells harboring EML4-ALK assessed as inhibition of cell growth incubated for 72 hrs by CellTiter-Glo assay; format: functional, cell-based; conditions: BaF3, 72 h
[3] = Toxicity in female Sprague-Dawley rat assessed as animal death at 75 mg/kg, po administered for 14 days; format: organism-based; conditions: in vivo, 336 h, time 14 day
[4] = system: NCI-H3122; experiment: Antiproliferative activity against human NCI-H3122 cells harbouring EML4-ALK assessed as inhibition of cell growth incubated for 72 hrs by CellTiter-Glo Luminescent Cell Viability Assay; format: functional, cell-based; conditions: NCI-H3122, 72 h
[5] = Toxicity in Sprague-Dawley rat blood assessed as adverse effect at 17.5 mg/kg, po administered once daily for 7 days; format: organism-based; conditions: in vivo, 168 h, time 7 day
[6] = system: BaF3; experiment: Antiproliferative activity against mouse BaF3 cells harboring EML4-ALK-L1196M mutant assessed as inhibition of cell growth incubated for 72 hrs by CellTiter-Glo assay; format: functional, cell-based; conditions: BaF3, 72 h
[7] = Tmax in male Sprague-Dawley rat plasma at 10 mg/kg, po measured upto 72 hrs; format: ADME, organism-based
[8] = Toxicity in female Sprague-Dawley rat assessed as animal death at 200 mg/kg, po administered for 14 days; format: organism-based; conditions: in vivo, 336 h, time 14 day
[9] = Toxicity in male Sprague-Dawley rat assessed as animal death at 125 mg/kg, po administered for 14 days; format: organism-based; conditions: in vivo, 336 h, time 14 day
[10] = Toxicity in male Sprague-Dawley rat assessed as animal death at 200 mg/kg, po administered for 14 days; format: organism-based; conditions: in vivo, 336 h, time 14 day
[11] = MRT (0 to infinity) in male Sprague-Dawley rat plasma at 10 mg/kg, po measured upto 72 hrs; format: ADME, organism-based
[12] = system: BaF3; experiment: Antiproliferative activity against mouse BaF3 cells harboring wild-type EGFR assessed as inhibition of cell growth incubated for 72 hrs by CellTiter-Glo assay; format: functional, cell-based; conditions: BaF3, 72 h
[13] = Toxicity in Sprague-Dawley rat assessed as maximum tolerated dose administered as single po dose measured for 14 days; format: organism-based; conditions: in vivo, time 14 day
[14] = Cmax in male Sprague-Dawley rat plasma at 10 mg/kg, po measured upto 72 hrs; format: ADME, organism-based
[15] = system: BaF3; experiment: Antitumor activity against mouse BaF3 cells harbouring EML-4-ALK-L1196M mutant allografted in female BALB/c nude mouse assessed as tumor growth inhibition at 37 mg/kg, po administered once daily for 11 days by vernier caliper based analysis relative to control; format: functional; conditions: BaF3, 264 h, time 11 day, read-out: TGI
[16] = Half life in male Sprague-Dawley rat plasma at 10 mg/kg, po measured upto 72 hrs; format: ADME, organism-based
[17] = AUC (0 to infinity) in male Sprague-Dawley rat plasma at 10 mg/kg, po measured upto 72 hrs; format: ADME, organism-based
[18] = Toxicity in male Sprague-Dawley rat assessed as animal death at 75 mg/kg, po administered for 14 days; format: organism-based; conditions: in vivo, 336 h, time 14 day
[19] = Toxicity in female Sprague-Dawley rat assessed as animal death at 125 mg/kg, po administered for 14 days; format: organism-based; conditions: in vivo, 336 h, time 14 day
[20] = system: BaF3; experiment: Antiproliferative activity against mouse BaF3 cells harboring EGFR Del19/T790M/C797S mutant assessed as inhibition of cell growth incubated for 72 hrs by CellTiter-Glo assay; format: functional, cell-based; conditions: BaF3, 72 h
[21] = system: A-431; experiment: Antiproliferative activity against human A-431 cells harbouring wild-type EGFR assessed as inhibition of cell growth incubated for 72 hrs by CellTiter-Glo Luminescent Cell Viability Assay; format: functional, cell-based; conditions: A-431, 72 h
[22] = Antiproliferative activity against human NCI-H1975 cells harbouring EGFR del19/T790M/C797S mutant assessed as inhibition of cell growth incubated for 72 hrs by CellTiter-Glo Luminescent Cell Viability Assay; format: functional, cell-based; conditions: NCI-H1975, 72 h
[23] = system: PC-9; experiment: Antiproliferative activity against human PC-9 cells harbouring EGFR del19/T790M/C797S mutant assessed as inhibition of cell growth incubated for 72 hrs by CellTiter-Glo Luminescent Cell Viability Assay; format: functional, cell-based; conditions: PC-9, 72 h
[24] = system: BaF3; experiment: Antitumor activity against mouse BaF3 cells harbouring EML-4-ALK-L1196M mutant allografted in female BALB/c nude mouse assessed as tumor growth inhibition at 20 mg/kg, po administered once daily for 11 days by vernier caliper based analysis relative to control; format: functional; conditions: BaF3, 264 h, time 11 day, read-out: TGI
[25] = system: BaF3; experiment: Antitumor activity against mouse BaF3 cells harbouring EML-4-ALK-L1196M mutant allografted in female BALB/c nude mouse assessed as tumor growth inhibition at 46 mg/kg, po administered once daily for 11 days by vernier caliper based analysis relative to control; format: functional; conditions: BaF3, 264 h, time 11 day, read-out: TGI
[26] = Antitumor activity against patient derived LU2445 lung cancer cells harbouring EML4-ALK model assessed as tumor growth inhibition po dose administered for 25 days by vernier caliper based analysis relative to control; format: functional, Homo sapiens; conditions: time 25 day
[27] = system: BaF3; experiment: Antitumor activity against mouse BaF3 cells harbouring EML-4-ALK-L1196M mutant allografted in female BALB/c nude mouse assessed as tumor growth inhibition at 100 mg/kg, po administered once daily for 11 days by vernier caliper based analysis relative to control; format: functional, organism-based; conditions: time 11.0 day
[28] = Potency index, ratio of Brigatinib IC50 to test compound IC50 for antiproliferative activity against mouse BaF3 cells harboring EGFR Del19/T790M/C797S mutant assessed as inhibition of cell growth incubated for 72 hrs by CellTiter-Glo assay; format: functional
[29] = Potency index, ratio of Brigatinib IC50 to test compound IC50 for antiproliferative activity against mouse BaF3 cells harboring EML4-ALK-L1196M mutant assessed as inhibition of cell growth incubated for 72 hrs by CellTiter-Glo assay; format: functional
[30] = system: BaF3; experiment: Antitumor activity against mouse BaF3 cells harbouring EML-4-ALK-L1196M mutant allografted in female BALB/c nude mouse assessed as tumor growth inhibition at 25 mg/kg, po administered once daily for 11 days by vernier caliper based analysis relative to control; format: functional; conditions: BaF3, 264 h, time 11 day, read-out: TGI

Compound: COc1cc(N2CCC(N3CCN(C)CC3)CC2)ccc1Nc1ncc(Cl)c(Nc2ccccc2P(C)(C)=O)n1 [BRIGATINIB]
IC50 [1]: 190 nM | IC50 [2]: 4 nM | Activity [3]: Toxic | IC50 [4]: 14 nM | Activity [5]: Toxic | IC50 [6]: 10 nM | Tmax [7]: 3 h | Activity [8]: Toxic | Activity [9]: Toxic | Activity [10]: Toxic | MRT inf [11]: 9.7 h | IC50 [12]: 1650 nM | MTD at 336 h [13]: 75 mg/kg | Cmax [14]: 1930 ng/mL | inhibition in vivo at 37 mg/kg [15]: 94.8% | half-life [16]: 18.6 h | AUC(0-inf) [17]: 21600 ng·h/mL | Activity [18]: Toxic | Activity [19]: Toxic | IC50 [20]: 180 nM

Compound: C=CC(=O)Nc1cc(Nc2nccc(-c3cn(C)c4ccccc34)n2)c(OC)cc1N(C)CCN(C)C [OSIMERTINIB]
IC50 [21]: […] | IC50 [22]: 3360 nM | IC50 [12]: 75 nM | IC50 [20]: 790 nM | IC50 [23]: 2850 nM

Compound: CCc1cc2c(cc1N1CCC(N3CCOCC3)CC1)C(C)(C)c1[nH]c3cc(C#N)ccc3c1C2=O [ALECTINIB]
inhibition in vivo at 20 mg/kg [24]: 87.4%

Compound: C[C@@H]1CN(C(=O)c2ccc(NC(=O)c3cc(O[C@H](C)c4c(Cl)ccc(F)c4Cl)c(N)nn3)cc2)C[C@H](C)N1 [ENSARTINIB]
inhibition in vivo at 46 mg/kg [25]: -32.4%

Compound: C[C@H]1Oc2cc(cnc2N)-c2c(nn(C)c2C#N)CN(C)C(=O)c2ccc(F)cc21 [LORLATINIB]
inhibition in vivo at 20 mg/kg [24]: 129%

Compound: Cc1cc(Nc2ncc(Cl)c(Nc3ccccc3S(=O)(=O)C(C)C)n2)c(OC(C)C)cc1C1CCNCC1 [CERITINIB]
inhibition in vivo at 25 mg/kg [30]: -3.8%

Second part, led by results:

IC50 [2]: 9 nM | IC50 [6]: 17 nM | IC50 [12]: 1080 nM | IC50 [20]: 19 nM
Compound: COc1cc(N2CCC(N3CCN(C)CC3)CC2)c(C)cc1Nc1ncc(Br)c(Nc2ccc(F)cc2P(C)(C)=O)n1

IC50 [21]: 650 nM | IC50 [23]: 9510 nM
Compound: C#Cc1cccc(Nc2ncnc3cc(OCCOC)c(OCCOC)cc23)c1 [ERLOTINIB]
IC50 [22]: 4930 nM

IC50 [1]: […] | IC50 [2]: 20 nM | IC50 [4]: 120 nM | IC50 [6]: 160 nM
Compound: C[C@@H](Oc1cc(-c2cnn(C3CCNCC3)c2)cnc1N)c1c(Cl)ccc(F)c1Cl [CRIZOTINIB]
TGI [26]: 18% | TGI [27]: No effect

IC50 [2]: 7 nM | IC50 [6]: 18 nM | IC50 [12]: 820 nM | IC50 [20]: 26 nM
Compound: COc1cc(N2CCC(N3CCN(C)CC3)CC2)c(C)cc1Nc1ncc(Cl)c(Nc2ccccc2P(C)(C)=O)n1
Ratio [28]: 7

IC50 [2]: 12 nM | IC50 [6]: 25 nM | IC50 [12]: 1030 nM | IC50 [20]: 5 nM
Compound: COc1cc(N2CCC(N3CCN(C)CC3)CC2)c(C)cc1Nc1ncc(Br)c(Nc2ccc(Cl)cc2P(C)(C)=O)n1

IC50 [2]: 14 nM | IC50 [6]: 29 nM | IC50 [12]: 690 nM | IC50 [20]: 22 nM
Compound: COc1cc(N2CCC(N3CCN(C)CC3)CC2)c(C)cc1Nc1ncc(Cl)c(Nc2ccc(C)cc2P(C)(C)=O)n1
Ratio [29]: 8 | Ratio [28]: 8

IC50 [2]: 7 nM | IC50 [6]: 16 nM | IC50 [12]: 1780 nM | IC50 [20]: 190 nM
Compound: COc1cc(N2CCC(N3CCN(C)CC3)CC2)ccc1Nc1ncc(Cl)c(Nc2ccc(C)cc2P(C)(C)=O)n1

IC50 [2]: 7 nM | IC50 [6]: 13 nM | IC50 [12]: 600 nM | IC50 [20]: 19 nM
Compound: COc1cc(N2CCC(N3CCN(C)CC3)CC2)c(Cl)cc1Nc1ncc(Br)c(Nc2ccc(C)cc2P(C)(C)=O)n1

— ChEMBL document CHEMBL6114963, “Discovery and preclinical evaluations of drug candidate DA-0157 capable of overcoming EGFR drug-resistant mutation C797S and EGFR/ALK co-mutations” (Eur J Med Chem, 2025)
